From the NIST ThermoML archive (doi:10.1016/j.jct.2017.07.004)
Numbers after ± are expanded uncertainties.

Key:
[1] = xn = mol fraction of the nth substance listed; conditions: 100 kPa, Liquid, x2 = 0; for viscosity: Concentric cylinders viscometry; for mass density: Vibrating tube method
[2] = 100 kPa, Liquid; for viscosity: Concentric cylinders viscometry; for mass density: Vibrating tube method

Compound | viscosity ([1]; 293.15 K) [mPa·s] | mass density ([1]; 293.15 K) [kg/m3] | viscosity ([1]; 298.15 K) [mPa·s] | mass density ([1]; 298.15 K) [kg/m3] | viscosity ([1]; 303.15 K) [mPa·s] | mass density ([1]; 303.15 K) [kg/m3] | viscosity ([1]; 308.15 K) [mPa·s] | mass density ([1]; 308.15 K) [kg/m3] | viscosity ([1]; 313.15 K) [mPa·s] | mass density ([1]; 313.15 K) [kg/m3] | viscosity ([1]; 318.15 K) [mPa·s] | mass density ([1]; 318.15 K) [kg/m3] | viscosity ([1]; 323.15 K) [mPa·s] | mass density ([1]; 323.15 K) [kg/m3] | viscosity ([2]; 298.15 K) [mPa·s] | viscosity ([2]; 303.15 K) [mPa·s] | viscosity ([2]; 308.15 K) [mPa·s] | viscosity ([2]; 313.15 K) [mPa·s] | viscosity ([2]; 318.15 K) [mPa·s] | viscosity ([2]; 323.15 K) [mPa·s] | further results
CCC(C)O (configuration not stated) [butan-2-ol] + CCC=O | 3.67 ± 0.29 | 806.7 ± 1 | 3.04 ± 0.24 | 802.7 ± 1 | 2.54 ± 0.2 | 798.4 ± 1 | 2.13 ± 0.17 | 794.1 ± 1 | 1.8 ± 0.14 | 789.8 ± 1 | 1.54 ± 0.12 | 785.2 ± 1 | 1.33 ± 0.11 | 780.6 ± 1 | – | – | – | – | – | – | –
CCCC(C)O (configuration not stated) [pentan-2-ol] | – | – | – | – | – | – | – | – | – | – | – | – | – | – | 3.32 ± 0.27 | 2.81 ± 0.23 | 2.37 ± 0.19 | 1.99 ± 0.16 | 1.66 ± 0.13 | 1.39 ± 0.11 | –
CCCC(C)O (configuration not stated) [pentan-2-ol] + CCC=O | 3.97 ± 0.32 | 809.3 ± 1 | 3.32 ± 0.27 | 805.3 ± 1 | 2.81 ± 0.23 | 801.2 ± 1 | 2.37 ± 0.19 | 797 ± 1 | 1.99 ± 0.16 | 792.7 ± 1 | 1.66 ± 0.13 | 788.4 ± 1 | 1.39 ± 0.11 | 784 ± 1 | – | – | – | – | – | – | –
CC(C)O [propan-2-ol] + CCC=O | 2.42 ± 0.19 | 785.4 ± 1 | 2.08 ± 0.17 | 781.1 ± 1 | 1.8 ± 0.14 | 776.8 ± 1 | 1.56 ± 0.13 | 772.4 ± 1 | 1.36 ± 0.11 | 768 ± 1 | 1.19 ± 0.1 | 763.4 ± 1 | 1.05 ± 0.08 | 758.8 ± 1 | – | – | – | – | – | – | –
CCC=O [propanal] | – | – | – | – | – | – | – | – | – | – | – | – | – | – | 0.33 ± 0.03 | 0.31 ± 0.03 | 0.3 ± 0.03 | 0.28 ± 0.02 | 0.27 ± 0.02 | 0.25 ± 0.02 | viscosity ([2]; 293.15 K): 0.34 ± 0.03 mPa·s; mass density ([2]; 293.15 K): 802.4 ± 1 kg/m3; mass density ([2]; 298.15 K): 796.2 ± 1 kg/m3; mass density ([2]; 303.15 K): 790.3 ± 1 kg/m3; mass density ([2]; 308.15 K): 784.5 ± 1 kg/m3; mass density ([2]; 313.15 K): 779 ± 1 kg/m3; mass density ([2]; 318.15 K): 773.5 ± 1 kg/m3; mass density ([2]; 323.15 K): 768.2 ± 1 kg/m3
